From ChEMBL document CHEMBL1201862, “PubChem BioAssay data set” (2004)
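Assay format: 96-well plates, 48-hour exposure. The concentration for 50% growth inhibition is given as GI50.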 Active and inactive are the calls of the source. Cut-off read from the data, not from the text of the source: active = GI50 up to about 1.1 µM and inactive = higher.

Tests used:
Experiment in all cases: DTP human tumour cell line panel, 48 h
[1] = test system: A498
[2] = test system: A549
[3] = test system: ACHN
[4] = test system: CAKI-1
[5] = test system: CCRF-CEM
[6] = test system: COLO 205
[7] = test system: DLD-1
[8] = test system: DMS-114
[9] = test system: DMS-273
[10] = test system: EKVX
[11] = test system: HCC 2998
[12] = test system: HCT-116
[13] = test system: HCT-15
[14] = test system: HL-60
[15] = test system: HOP-62
[16] = test system: HOP-92
[17] = test system: HT-29
[18] = test system: IGROV-1
[19] = test system: K562
[20] = test system: KM-20L2
[21] = test system: KM12
[22] = test system: LOX IMVI
[23] = test system: LXFL 529
[24] = test system: M14
[25] = test system: M19-MEL
[26] = test system: MOLT-4
[27] = test system: NCI-H226
[28] = test system: NCI-H23
[29] = test system: NCI-H460
[30] = test system: NCI-H522
[31] = test system: OVCAR-4
[32] = test system: OVCAR-5
[33] = test system: OVCAR-8
[34] = test system: RPMI-8226
[35] = test system: RXF 393
[36] = test system: RXF 631
[37] = test system: SF-268
[38] = test system: SF-295
[39] = test system: SF-539
[40] = test system: SK-MEL-28
[41] = test system: SK-MEL-2
[42] = test system: SK-MEL-5
[43] = test system: SK-OV-3
[44] = test system: SN12C
[45] = test system: SNB-19
[46] = test system: SNB-75
[47] = test system: SNB-78
[48] = test system: SR
[49] = test system: SW-620
[50] = test system: TK-10
[51] = test system: U-251
[52] = test system: UACC-257
[53] = test system: UACC-62
[54] = test system: UO-31
[55] = test system: XF498

COc1ccccc1NC(=O)C(=O)C(C(=O)c1ccccc1F)C1OC(=O)c2ccccc21 (stereo not given) was tested, and the GI50 [1] was 59.8 µM (inactive), the GI50 [2] was 45.3 µM (inactive) and the GI50 [3] was 39.4 µM (inactive). For the same compound, the GI50 [4] was 34.5 µM (inactive), the GI50 [5] was 16.1 µM (inactive) and the GI50 [6] was 19.2 µM (inactive). For the same compound, the GI50 [7] was 33.3 µM (inactive), the GI50 [8] was 23.1 µM (inactive) and the GI50 [9] was 23.9 µM (inactive). The GI50 [10] was 27.9 µM (inactive), the GI50 [11] was 14.8 µM (inactive) and the GI50 [12] was 22 µM (inactive). The GI50 [13] was 25 µM, the GI50 [14] was 20.3 µM (inactive) and the GI50 [15] was 30.5 µM (inactive). The GI50 [16] was 42.6 µM (inactive), the GI50 [17] was 23.9 µM (inactive) and the GI50 [18] was 52.6 µM (inactive). For the same compound, the GI50 [19] was 32.7 µM (inactive), the GI50 [20] was 24.9 µM (inactive) and the GI50 [21] was 30.1 µM (inactive). The GI50 [22] was 20.8 µM (inactive), the GI50 [23] was 24.9 µM (inactive) and the GI50 [24] was 27.5 µM (inactive). For the same compound, the GI50 [25] was 15.8 µM (inactive), the GI50 [26] was 15.5 µM (inactive) and the GI50 [27] was 15.6 µM (inactive). The GI50 [28] was 20 µM (inactive), the GI50 [29] was 25.8 µM (inactive) and the GI50 [30] was 16.9 µM (inactive). The GI50 [31] was 28.1 µM (inactive), the GI50 [32] was 45.1 µM (inactive) and the GI50 [33] was 19.9 µM (inactive). For the same compound, the GI50 [34] was 20.2 µM (inactive), the GI50 [35] was 42.9 µM (inactive) and the GI50 [36] was 18.7 µM (inactive). For the same compound, the GI50 [37] was 29.9 µM (inactive), the GI50 [38] was 43.1 µM (inactive) and the GI50 [39] was 20.8 µM (inactive). For the same compound, the GI50 [40] was 46.3 µM (inactive), the GI50 [41] was 17.6 µM (inactive) and the GI50 [42] was 39.1 µM (inactive). For the same compound, the GI50 [43] was 35.6 µM (inactive), the GI50 [44] was 24.2 µM (inactive) and the GI50 [45] was 19.3 µM (inactive). The GI50 [46] was 21.9 µM (inactive), the GI50 [47] was 25.5 µM (inactive) and the GI50 [48] was 22.2 µM (inactive). For the same compound, the GI50 [49] was 32.9 µM (inactive), the GI50 [50] was 50 µM (inactive) and the GI50 [51] was 14.3 µM (inactive). The GI50 [52] was 54.8 µM (inactive), the GI50 [53] was 15.8 µM (inactive) and the GI50 [54] was 32.4 µM (inactive). The GI50 [55] was 14.1 µM (inactive).
